The values that follow come from PubChem BioAssay (NCI).

Common to all, as to test: NCI tumour cell line growth inhibition, 48 h
The test system of assay [1] is DLD-1 colon.
Assay [2] deals with XF 498 CNS.
The subject of assay [3] is M19-MEL melanoma.
Assay [4] deals with KM20L2 colon.
Assay [5] relates to DMS 114 small cell lung.
Assay [6] has as its system LXFL 529 NSCLC.
For assay [7], the system named is RXF-631 renal.
The test system of assay [8] is SNB-78 CNS.
Assay [9] concerns MDA-N.
Assay [10] relates to P388 leukemia.
In assay [11] the test system is SN12K1 renal.

Several values for one entry are separate records, joined by “and”; a condition that tells them apart may be missing. Identical values can stand only once.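 Five concentrations, 48 hours, 96-well plates. GI50: concentration for 50% inhibition of growth. TGI is the concentration that stops growth completely.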 Bounds are passed on as bounds.

For `CCOC(=O)C[C@@]12CCCNC1(C)CCc1ccccc12` (stereo partly specified), the TGI in [1], in [2], in assay [3], in [4] and in [5] was greater than 100 µM throughout.
With `O=C1C(c2ccccc2)=C(c2ccccc2)[C@H](c2ccccc2)[C@]1(Cc1nnn(-c2ccc([N+](=O)[O-])cc2)c1N1CCOCC1)c1ccccc1`, the TGI was greater than 37.5 µM in assay [6]; greater than 37.5 µM in assay [1]; 26.5 µM in [2]; greater than 37.5 µM in assay [3]; greater than 37.5 µM in assay [4]; greater than 37.5 µM in [7]. For the same compound, the TGI in assay [5] and in [8] was greater than 37.5 µM throughout.
In the case of `Cc1nnc(N=Nc2c(O)[nH]c3ccccc23)n1N`, the TGI in [6], in assay [1], in [2], in [3], in assay [4] and in assay [7] was greater than 100 µM throughout. For the same compound, the TGI in assay [5] and in [8] was greater than 100 µM each time.
Turning to `COc1cc(O)c(C(C)=O)c(O)c1`, the TGI in assay [9] is greater than 100 µM.
For the compound `COc1ccc(C2NCCc3c2[nH]c2ccccc32)cc1` (stereo unspecified), the TGI in [6], in assay [1], in assay [2], in assay [3], in [4] and in assay [7] was greater than 100 µM throughout.
Take `COC(=O)C1(F)C(=O)NC(=O)NC1OC` (stereo unspecified): the TGI in assay [1], in [2], in [3], in assay [4], in assay [5] and in [8] was greater than 100 µM each time.
`NS(=O)(=O)c1ccc(NC(=O)c2cccn3c(=O)c4ccccc4nc23)cc1`: the TGI in assay [6], in [1], in assay [2], in assay [3], in [4] and in assay [7] was greater than 100 µM each time. Moreover, the TGI in [5] and in assay [8] was greater than 100 µM throughout.
Turning to `CC(=O)OCCC(O[Si](c1ccccc1)(c1ccccc1)C(C)(C)C)C(C)(C)O` (stereo unspecified), the TGI in assay [6] was greater than 100 µM; in assay [2], 96.8 µM; in [3] it was 57.2 µM; in assay [4], greater than 100 µM; in assay [7] it was greater than 100 µM; in assay [5] it was 53.6 µM. Besides, the TGI in [8] is greater than 100 µM.
In the case of `C/C(=N/NC(=O)CC(=O)N(C(=O)c1ccccc1Cl)c1ccc(C)cc1)c1cc2ccccc2oc1=O`, the TGI in assay [6], in assay [1], in assay [2], in [3], in assay [4] and in assay [7] was greater than 100 µM each time. In addition, the TGI in assay [5] and in [8] was greater than 100 µM throughout.
Take `CC1(C)OC(COCCOCCCCCO)C(COCCOCCCCCO)O1` (stereo unspecified): the TGI in assay [6], in assay [1], in assay [3], in assay [4], in [7] and in assay [5] was greater than 100 µM in each case. In addition, in assay [8], the TGI was greater than 100 µM.
For the compound `Cc1ccccc1NC(=O)C(=O)CC(=O)c1ccc([N+](=O)[O-])cc1`, the TGI in assay [6], in assay [1], in assay [2], in [3], in assay [4] and in [7] was greater than 100 µM in each case. Also, the TGI in assay [5] and in [8] was greater than 100 µM each time.
Turning to `CC1=C(C(=O)CC(=O)C(=O)NC2C3CC4CC(C3)CC2C4)Sc2ccccc2N1` (stereo unspecified), the TGI in assay [6] is greater than 100 µM; in assay [1], greater than 100 µM; in [2] it was greater than 100 µM; in assay [3], greater than 100 µM; in assay [4] it was greater than 100 µM; in assay [5], greater than 31.6 µM. In addition, in assay [8], the TGI was greater than 100 µM.
In turn, `O=C(O)Cn1ccnc1[N+](=O)[O-]` returned a TGI in assay [9] greater than 100 µM.
In the case of `C/C(=N/O)c1ccc2c(c1)C(=NO)c1cc(/C(C)=N/O)ccc1-2`, the TGI in assay [6] worked out at 29 µM; in assay [1], 52.8 µM; in assay [2], 36.2 µM; in [3] it was 64.8 µM; in assay [4], 32.3 µM; in assay [5] it was 53.7 µM. The compound further yielded a TGI in [8] of 47.9 µM.
As for `CC(C)(CO)N=Cc1ccccc1[O-].CC(C)(CO)N=Cc1ccccc1[O-].[Co+2]`, the GI50 is 19.2 µM in [6]; 26.6 µM in assay [1]; greater than 100 µM in assay [2]; greater than 73.8 µM in assay [3]; 61.9 µM in assay [4]; 18.7 µM in [5]. The GI50 in [8] is greater than 100 µM. The TGI in [6], in assay [1], in assay [2], in assay [3], in [4] and in [5] was greater than 100 µM in each case. In addition, the TGI in assay [8] is greater than 100 µM.
`COc1cc([C@H]2c3[nH]c4ccccc4c3C[C@H]3COC(=O)N32)cc(OC)c1O`: the TGI in [1] was greater than 100 µM; in [2], 43 µM; in assay [3], greater than 100 µM; in [8], greater than 100 µM.
`COc1cc2cccc(N=Cc3c(Br)ccc(OC)c3OC(C)C)c2cc1OC`: the TGI was greater than 100 µM in assay [6]; 82.2 µM in [1]; greater than 100 µM in assay [2]; greater than 100 µM in assay [3]; greater than 100 µM in assay [4]; 63.5 µM in assay [5]. Moreover, in assay [8], the TGI is greater than 100 µM.
Regarding `C=CC1=CC(C)C[C@]1(O)C(=O)OC` (stereo partly specified), the GI50 in [6], in [1], in [2], in assay [3], in [7] and in assay [5] was greater than 100 µM each time. In addition, the TGI in assay [4] and in [8] was greater than 100 µM throughout.
Compound `COc1ccc(/C=C/C(=O)C(C)(C)Br)cc1` yielded a TGI in assay [9] of 39.4 µM.
Regarding `CC1(C)CC(=O)c2c(oc3cc(O)c(O)cc23)C1`, the TGI in assay [6] was 91.8 µM; in assay [1], 53.9 µM; in [3], greater than 100 µM; in assay [4], greater than 100 µM; in assay [7] it was greater than 100 µM; in assay [5] it was 32.5 µM. This compound came in with a TGI in assay [8] greater than 100 µM.
`COC(=O)c1cc2c3c(ccc2[nH]1)N(C(=O)c1cc2c4c(ccc2[nH]1)N(C(=O)c1cc2c5c(ccc2[nH]1)N(C(N)=O)CC5)CC4)CC3`: the TGI in [1] is greater than 100 µM; in assay [4], greater than 100 µM; in [5] it was 57.3 µM; in [8], greater than 100 µM.
Consider `COc1nc2c(c(O)c(C)c(=O)n2OC2OC(COC(C)=O)C(OC(C)=O)C(OC(C)=O)C2OC(C)=O)c(=O)n1C` (stereo unspecified), for which the TGI in [6], in assay [1], in [2], in [3], in assay [4] and in assay [7] was greater than 100 µM throughout. In addition, the TGI in [5] and in [8] was greater than 100 µM throughout.
As to `CC[C@@]1(O)C(=O)OCc2c1cc1n(c2=O)Cc2cc3c(N)cccc3nc2-1`, the TGI in assay [10] is 0.3 µM; in assay [6], 2.98 µM; in assay [1] it was greater than 51.7 µM; in [2] it was 1.05 µM; in assay [3], 0.654 µM; in assay [9] it was greater than 33.8 µM. Besides, the TGI in [4] was 4.02 µM; in assay [7], 1.69 µM; in [11] it was 1.34 µM; in assay [5] it was 0.121 µM; in assay [8], greater than 100 µM. Further, the GI50 in [9] was 0.333 µM.
As for `Cc1cc(NC(=O)NC(=O)c2ccccc2N(C)C)ccc1Oc1ncc(Br)cn1`, the GI50 in assay [6] is 0.658 µM; in [1], 0.527 µM; in assay [2] it was 0.894 µM; in [3], 2.51 µM; in [5], 0.478 µM. Moreover, the TGI in [6] was greater than 100 µM; in [1], greater than 100 µM; in [3], greater than 100 µM; in [9], 0.281 µM; in assay [4] it was 0.796 µM; in assay [8], greater than 100 µM.
Turning to `NC(=O)c1c[se]c(C2OC(COP(=O)(O)CP(=O)(O)OCC3OC(n4cnc5c(N)ncnc54)C(O)C3O)C(O)C2O)n1` (stereo unspecified), the TGI in [6], in assay [1], in assay [2], in assay [3], in assay [4] and in assay [5] was greater than 100 µM each time. The same compound came in with a TGI in assay [8] greater than 100 µM.
For `CCCCCCCCCC(=O)Oc1cccc2onc(C)c12`, the TGI in assay [6], in [1], in assay [3], in [4], in [7] and in assay [5] was greater than 100 µM in each case. The TGI in [8] is greater than 100 µM.
In the case of `CC[P+]1(CC)CCCC1`, the TGI in [6], in assay [1], in [2], in assay [3], in assay [4] and in assay [5] was greater than 100 µM each time. In assay [8], this compound registered a TGI greater than 100 µM.
Take `CCCCCCCCCCCCCCCCS(=O)(=O)c1ccc(NN)cc1`: the TGI in [9] was greater than 10 µM.
For `Cc1ccc(/C=C2\CNC/C(=C\c3ccc(C)cc3)C2=O)cc1`, the GI50 is 0.819 µM in [6], 0.916 µM in assay [1] and 2.1 µM in assay [3]. Moreover, the TGI in [6] is 2.71 µM and 2.17 µM; in assay [1] it was 1.2 µM and 2.32 µM; in assay [2], 5.16 µM; in [3], 2.98 µM and 5 µM; in assay [9], 3.53 µM; in assay [4], 3.02 µM and 3.14 µM. The TGI is 4.98 µM in [5] and greater than 100 µM in assay [8].
Take `O=[N+]([O-])C1C2C=CC(C2)[C@H]1c1ccc(Cl)cc1Cl` (stereo partly specified): the TGI in [6], in assay [1], in assay [2], in [3] and in assay [8] was greater than 100 µM throughout.
With `O=C(O)C1C2C=CC(O2)C1C(=O)Nc1ncccn1` (stereo unspecified), the TGI in assay [9] was greater than 100 µM.
Take `c1ccc(NC[Si]23OCCN(CCO2)CCO3)cc1`: the TGI in assay [6], in assay [1], in assay [3], in [7], in assay [5] and in [8] was greater than 100 µM in each case.
On to `CC(=O)[CH-]C(=O)c1ccccc1.CC(=O)[CH-]C(=O)c1ccccc1.[CH2-]CCC.[CH2-]CCC.[Sn+4]`, for which the GI50 in assay [6] is 0.198 µM; in [3], 0.632 µM; in assay [4] it was 1.99 µM. The results for the TGI in assay [6], in assay [3] and in assay [4] were 0.627 µM, 1.96 µM and 3.94 µM, respectively.
With `CC(C)(C)c1cc(CCC(=O)Nc2ccc(Cl)cc2Cl)nc(N)n1`, the TGI in assay [6], in assay [1], in [3], in assay [4], in assay [7] and in [5] was greater than 100 µM in each case. The TGI in [8] is greater than 100 µM.
For `C[N+](C)=c1nc(N2CCOCC2)ss1`, the TGI in [6], in assay [2] and in assay [8] was greater than 100 µM each time.
Take `COc1ccc(CC2=NCCc3cc(OC)c(OC)cc32)cc1Br`: the TGI in assay [6] is greater than 100 µM; in assay [1], greater than 100 µM; in [2], 53.1 µM; in assay [3] it was greater than 100 µM; in assay [4], 99.3 µM; in assay [5], 48.3 µM. The compound also gave a TGI in assay [8] greater than 100 µM.
Regarding `NC(=O)C(=O)n1ncc(Cl)c(Cl)c1=O`, the TGI in [6] was 29 µM; in assay [1], 47.7 µM; in assay [2], 31.6 µM; in [3], greater than 65.3 µM; in assay [9], greater than 100 µM; in [4] it was greater than 90.8 µM. The TGI worked out at 36.6 µM in assay [5] and 49.8 µM in assay [8].
Consider `CCOC1=C2NC(Cc3ccc(F)cc3)=NC2C(=O)c2ccccc21` (stereo unspecified), for which the TGI is 77.3 µM in [6]; greater than 100 µM in assay [1]; 39.5 µM in [3]; greater than 100 µM in [4]; greater than 100 µM in assay [7]; 61.9 µM in assay [5]. In addition, the TGI in assay [8] was greater than 100 µM.
